Test results: publication PMC6367500, “18β-glycyrrhetyl-3-O-sulfate would be a causative agent of licorice-induced pseudoaldosteronism” (Scientific Reports, 2019)

Legend:
[1] = Concentrations of GL metabolites in plasma of a patient with pseudoaldosteronism (LC-MS/MS); type: in vivo, human; settings: for plasma concentration, day 0 / concentration at 0 day: patient with licorice-induced pseudoaldosteronism, day 0; for plasma concentration, day 5 / concentration at 5 day: 5 days after stopping the Kampo formula; for concentration at 0 day: female; for concentration at 13 day: day 13
Description: The patient was a person who had taken a Kampo formula containing licorice for 3 years (1.5 g of licorice for 1 year and 2 months, and 3 g for 1 year and 10 months). On day 0, we found a low plasma potassium level (2.1 mEq/l) and a high creatinine kinase level (364 U/l). Since low plasma renin activity and a low aldosterone level were also found, the patient was diagnosed with pseudoaldosteronism due to licorice. The administration of the Kampo formula was stopped and potassium supplementation of up to 100 mEq/day was started. In the plasma collected on day 0, we detected compound 3 at 8.6 µM, GA at 1.3 µM, and 2 at 87 nM, while 1, GL and 3MGA were not detected. On day 5, the plasma potassium level was still 2.1 mEq/l and potassium supplementation was continued. However, the plasma concentrations of 3 and GA had decreased to 3.6 µM and 0.65 µM, respectively. 2, 1, GL, and 3MGA were not detected. On day 13, the plasma potassium level was increased to 2.8 mEq/l, and the concentrations of 3 and GA were 61 nM and 11 nM, respectively. On day 14, the plasma potassium level was 3.4 mEq/l, and the concentration of 3 was 57 nM; GA was not detected. On day 18, the plasma potassium level had recovered to a normal level (4.9 mEq/l), so potassium supplementation was stopped.
Female SD rats or EHBRs (9-week-old) were anesthetized by an intraperitoneal (i.p.) injection of urethane (1 g/kg) and their jugular veins were exposed. GA suspended in 0.5% CMC was then administered orally (200 mg/kg) to the unconscious rats, and blood samples were collected from the jugular vein; urine samples were collected using a metabolic cage at an appropriate time over a 12-h period. […] Feces were homogenized in phosphate-buffered saline (PBS; 0.15 M, pH 7.2), centrifuged (1.2 × 10^4 g, 10 min), and the supernatants were collected. After 1 week as a washout period, female SD rats were anesthetized by an i.p. injection of urethane (1 g/kg) and their biliary tract was cannulated. GA (0.2 mg/kg) was injected into the jugular vein, and the bile was collected every hour for 4 h. Aliquots (10 µl) of plasma, urine, homogenate of feces, or bile were mixed with 20 µl of subtilisin (0.91 U/ml) and incubated at 37 °C for 30 min, followed by the addition of 70 µl of astragaloside IV solution (1 µg/ml in ethanol containing 0.5% formic acid, used as internal standard), and kept at −20 °C for 30 min. […] The transitions (precursor to daughter) monitored and retention times were as follows: ESI(+) 743.4 to 567.5 m/z for compound 1 (5.5 min), ESI(−) 565.5 to 96.5 m/z for 2 (6.2 min), ESI(−) 549.5 to 96.5 m/z for 3 (8.1 min), ESI(+) 647.6 to 453.6 m/z for 3MGA (9.2 min), ESI(+) 471.3 to 91.0 m/z for GA (8.8 min), ESI(+) 823.5 to 453.6 m/z for GL (10.8 min), and ESI(+) 785.4 to 143.0 m/z for astragaloside IV (3.0 min). Linear regressions over the concentration range of 32 nM to 20 µM for each compound were examined using the peak-area ratio of the compounds to their internal standards and the least-squares method (r^2 > 0.98).
The patient was a person. They provided written informed consent to the use of their blood and urine samples for this study, which was approved by the Independent Ethics Committee of Kameda General Hospital, in accordance with the Declaration of Helsinki. Their anamnesis was follows: hypertension, systemic lupus erythematosus, and antiphospholipid antibody syndrome (for 15 years), necrotic pulmonary aspergillosis (6 years ago), cerebral infarction (14 and 4 years ago, two times), and stomach cancer (3 years ago). After the operation for stomach cancer, the patient had been treated with Kracie Juzentaihoto Extract Granules for Ethical Use (Kracie Pharmaceuticals., Tokyo, Japan). […]

anti-3MGA-mAb = test: Competitive ELISA using anti-3MGA-mAb; type: binding; settings: specificity to 3MGA calibrated to 100%, n = 1
Method: Figure 5 Dot-blot analysis and ELISA detection range of GL metabolites using anti-3MGA-monoclonal antibody (mAb). GL metabolites (1 µg each) were spotted on a PES membrane, and colored using an anti-3MGA-mAb (A). Competitive ELISA using anti-3MGA-mAb for GL metabolites was performed. Data are represented from a single analysis (n = 1) (B). […] Data are represented as mean ± S.D. (n = 3). Two-way ANOVA indicated a significant difference between GA and 3 (F1,36 = 4441, P < 0.001), concentrations (F8,36 = 315, P < 0.001), and their interactions (F8,36 = 281, P < 0.001). The calibrated line for the absorbance-concentration profile of 3 was calculated by the linear least-squares method, and the regression formula is shown in graph (C).
When the specificity of the mAb to 3MGA was calibrated to 100%, the cross-reactivity for GL, GA, 1, 2, and 3 was 0.23%, 2.2%, 4.8%, 4.0%, and 23%, respectively. […] We confirmed the selectivity of the anti-3MGA-mAb in discriminating between 3 and GA and established the detectable measurement range for 3 in this ELISA system.
3MGA-HSA (1 µg/ml in 50 mM carbonate buffer, pH 9.6) was added into a 96-well plate (Nagel Nunc, Penfield, NY, USA) (100 µl in a well) and incubated at 37 °C for 1 h. After the removal of 3MGA-HSA, the wells were washed three times with T-PBS (200 µl in a well). The wells were incubated with 300 µl in a well of 5% skim milk at 4 °C overnight. After the wells had been washed with T-PBS three times, the sample solution diluted with Can Get Signal® Solution 1 (Toyobo Co., Ltd., Osaka, Japan) (50 µl in a well) and anti-3MGA-mAb (1:4,000 dilution with Can Get Signal® Solution 1) (50 µl in a well) were added to the wells, and the plate was incubated at 37 °C for 1 h. After the wells had been washed with T-PBS three times, HRP-labeled goat anti-mouse IgG (Fc specific) antibody (Sigma, 1:20,000 dilution with Can Get Signal® Solution 2) was added into the wells (100 µl in a well) and the plate was incubated at 37 °C for 1 h. Next, the wells were washed with T-PBS three times and the substrate solution (3,3′,5,5′-tetramethylbensidine, TMB solution; Fujifilm Wako Pure Chemical Corporation, Osaka, Japan) was added to the wells (100 µl in a well), followed by incubation at room temperature for 5 min. Then, the stop solution (0.5 M sulfuric acid) was added to the wells (100 µl in a well) and the optical density was measured at 450 nm/630 nm.

plasma concentration (below detection limit) ([1]; patient plasma sample, LC-MS/MS detection limit)	plasma concentration, day 0 [1]	plasma concentration, day 5 ([1]; patient)	concentration at 0 day ([1]; human, plasma, oral)	concentration at 5 day ([1]; human, plasma, oral, patient)	concentration at 13 day ([1]; human, plasma, oral, patient)	plasma concentration, day 14 ([1]; patient, day 14)	concentration at 14 day ([1]; human, plasma, oral, patient, day 14)	plasma concentration, day 18 ([1]; patient, day 18)	Structure (SMILES)	cross-reactivity of anti-3MGA-mAb (anti-3MGA-mAb)
less than 3.2 nM	not detected	not detected	–	–	–	–	–	–	CC1(C)[C@@H](O[C@@H]2O[C@H](C(=O)O)[C@@H](O)[C@H](O)[C@H]2O)CC[C@]2(C)[C@H]3C(=O)C=C4[C@@H]5C[C@@](C)(C(=O)O)CC[C@]5(C)CC[C@@]4(C)[C@]3(C)CC[C@@H]12 [3MGA, 3-monoglucuronyl glycyrrhetinic acid, reference compound]	100%
–	not detected	not detected	–	–	–	–	–	–	CC1(C)[C@@H](OS(=O)(=O)O)CC[C@]2(C)[C@H]3C(=O)C=C4[C@@H]5C[C@@](C)(C(=O)O[C@@H]6O[C@H](C(=O)O)[C@@H](O)[C@H](O)[C@H]6O)C[C@H](O)[C@]5(C)CC[C@@]4(C)[C@]3(C)CC[C@@H]12 [compound 1, 22α-hydroxy-18β-glycyrrhetyl-3-O-sulfate-30-glucuronide]	4.8%

Further lines, the molecule ahead of its results:

Structure (SMILES)	plasma concentration (below detection limit) ([1]; patient plasma sample, LC-MS/MS detection limit)	plasma concentration, day 0 [1]	plasma concentration, day 5 ([1]; patient)	concentration at 0 day ([1]; human, plasma, oral)	concentration at 5 day ([1]; human, plasma, oral, patient)	concentration at 13 day ([1]; human, plasma, oral, patient)	plasma concentration, day 14 ([1]; patient, day 14)	concentration at 14 day ([1]; human, plasma, oral, patient, day 14)	plasma concentration, day 18 ([1]; patient, day 18)	cross-reactivity of anti-3MGA-mAb (anti-3MGA-mAb)
CC1(C)[C@@H](O)CC[C@]2(C)[C@H]3C(=O)C=C4[C@@H]5C[C@@](C)(C(=O)O)CC[C@]5(C)CC[C@@]4(C)[C@]3(C)CC[C@@H]12 [GA, glycyrrhetinic acid, reference compound]	–	–	–	1300 nM	650 nM	11 nM	not detected	–	–	2.2%
CC1(C)[C@@H](OS(=O)(=O)O)CC[C@]2(C)[C@H]3C(=O)C=C4[C@@H]5C[C@@](C)(C(=O)O)C[C@H](O)[C@]5(C)CC[C@@]4(C)[C@]3(C)CC[C@@H]12 [compound 2, 22α-hydroxy-18β-glycyrrhetyl-3-O-sulfate]	–	–	not detected	87 nM	–	–	–	–	–	4.0%
CC1(C)[C@@H](OS(=O)(=O)O)CC[C@]2(C)[C@H]3C(=O)C=C4[C@@H]5C[C@@](C)(C(=O)O)CC[C@]5(C)CC[C@@]4(C)[C@]3(C)CC[C@@H]12 [compound 3, 18β-glycyrrhetyl-3-O-sulfate]	–	–	–	8600 nM	3600 nM	61 nM	–	57 nM	below the detectable limit	23%
